# Reference: patent US20220409573A1, “Hippocampus Regeneration And Memory Recovery” (INNOBIOSCIENCE, LLC, priority 2021, published 2022)
# Key:
# [1] = test system: APPswe/PS-1 double transgenic mice; test: Classical Morris Water Maze test; assay type: in vivo; settings: 12 month-old APPswe/PS-1 mice, 2.0 mg/kg IP three times per week, four weeks, vs Tg control
# [2] = test system: Wnt/β-catenin pathway in hippocampal neurons; test: Wnt/β-catenin pathway activation in cultured hippocampal neurons (western blot, immunofluorescence); assay type: cell-based, rat
# Method: Primary culture of rat hippocampal neurons. Rat hippocampal cultures were prepared as previously described (Arrazola et al, 2009). On day 3 of culture, hippocampal cells were treated with […] 1-b-Darabinofuranosylcytosine (AraC) during 24 h to reduce the number of proliferating non-neuronal cells. […] PCR-ARRAY. RNA from hippocampal neurons was extracted using Trizol. Quantification and purity of RNA preparations were checked by absorbance using Nanodrop ND-2000. Only preparations with a 260/280 nm ratio≥1.8, a 260/230 nm ratio ≥1,7 and no sign of RNA degradations, verified by agarose gel electrophoresis with Gel Red TM were used. Genomic DNA was degraded. Using RT2First-Strand cDNA Synthesis kit (SuperArray), 1 μg total RNA was reverse transcribed and then real-time PCR was performed by adding cDNA directly to PCR Master Mix, containing SYBR Green and ROX. The mixtures were then aliquoted into a 96-well PCR array plates, which profiles the expression of 84 Wnt target genes from rat. The PCR was run on ABI StepOnePlus, with 1 cycle of 10 min at 95° C. followed by 40 cycles of 15 s at 95° C. and 1 min at 60° C. Cycle threshold (Ct) values were calculated for all the genes present on the array (Schmittgen & Livak, 2008).
# Treatment of neuronal cultures. Primary hippocampal cultures of neurons 14 DIV were washed twice in neurobasal medium and maintained for 1 hour.
# Nuclear and cytoplasmatic extraction. Following a time-course treatment, neurons were washed with cold PBS and harvested in 600 μL of cold homogenization buffer (10 mM HEPES pH 7,9; 1,5 mM MgCl2; 10 mM KCl; 1 mM DTT). The cells were disrupted by 20 passed, back and forth, through a syringe of 1 mL. Lysates were centrifuged for 6 minutes at 700 g at 4° C. and the supernatant was removed. The precipitate was washed in 100 μL of buffer (20 mM HEPES pH=7,9; 420 mM NaCl; 1,5 mM MgCl2; 0,2 mM EDTA; 1 mM DTT; 25% glicerol) and centrifuged again to generate nuclear fraction. Cytosolic fractions were generated from the supernatantat 100.000 g for 1 h at 4° C. Both buffers were supplemented with protease inhibitors and serine-phosphatase. Nuclear and cytosolic fractions were subsequently subjected to western blotting.
# Immunoblotting. The samples were dissected on ice and immediately frozen in liquid nitrogen or processed has previously detailed (Inestrosa et al, 2011). Briefly, tissues were homogenized in RIPA buffer (10 mM Tris-Cl, pH 7.4, EDTA 5 mM, 1% NP-40, 1% sodium deoxycholate, and 1% SDS) supplemented with a protease inhibitor mixture (1 mM PMSF, 2 μg/mL aprotinin, 1 μg/mL pepstatin and 10 μg/mL benzamidine) and phosphatase inhibitors (25 mMNaF, 100 mM Na3VO4, 1 mM EDTA and 30 μM Na4P207) using a Potter homogenizator and then passed sequentially through different caliber syringes. Protein samples were centrifuged at 14000 rpm at 4° C. twice for 15 min. Protein concentration was determined using the BCA Protein Assay Kit (Pierce). Samples were resolved by […] 10% SDS-PAGE and transferred to a PVDF membrane. The reactions were followed by incubation with anti-mouse, anti-goat or anti-rabbit IgG peroxidase conjugated (Pierce, Rockford, Ill.) and developed using an ECL kit (Western Lightning Plus ECL, PerkinElmer).
# Immunofluorescence. Hippocampal neurons were seeded onto poly-L-lysine-coated cover slips in 24-well culture plates at a density of 5×10^4 cellsper well, as described previously (Arrazola et al, 2009; Chacon et al, 2008). A mouse monoclonal anti-b-catenin was used. Cells were extensively washed with PBS and then incubated with Alexa 488-conjugated anti-mouse IgG for 1 h at room temperature. Cells were mounted in mounting medium and analyzed in a Carl-Zeiss Confocal Laser Microscope.
# [3] = test system: dentate gyrus of the hippocampus of wild-type mice; test: Adult hippocampal neurogenesis (Ki67, DCX immunofluorescence); assay type: in vivo; settings: for percentage of the granular cell layer covered by DCX staining / total number of Ki67+ cells in the SGZ: vs vehicle, 2 mg/kg
# Method: Animals. Two-month-old C57BC6 wild-type mice were treated and handled according to National Institutes of Health guidelines (NIH, […], Md.). The treatments were performed by intraperitoneal (ip) injection of 2.0 mg/kg ANDRO and wild-type control animals were injected only with saline solution as vehicle.
# Perfusion and postfixation. Mice were anesthetized (100 μg ketamine+10 μg xylazine in 10 μl saline/g), and then transcardially perfused with saline, followed by 4% paraformaldehyde (PFA) in 0.1M PBS. The brains were removed and incubated inPBS-4% PFA for 24 h at room temperature, dehydrated in 30% sucrose andkept at 4° C. until analysis.
# Tissue sectioning. After dehydration,each mouse brain was sectioned on a cryostate in 12 sets of serial coronal sections of 40 μm thickness (Leica Microsystems,Wetzlar, Germany) and collected in ice-cold-PBS in multiwell dishes.Each set contained 5-7 sections covering the entire length of the hippocampus.
# Inmunofluorescence for Ki67 and Doublecortin (DCX). Sections were washed with PBS 3 times for 5 min and then incubated in blocking solution (3% donkey serum, 3% BSA, 0.5% Triton X-100 in PBS) for 4 h. Then, tissues were incubated overenight with primary antibodies at 4° C. Primary antibodiesused were:rabbit anti-Ki67 (Abcam), rabbit anti-DCX (Cell Signaling Technology Inc., Beverly, Mass., USA), monoclonal anti-NeuN (Millipore, Billerica, Mass., USA). After washing 3 times with 0.5% Triton X-100 PBS, sections were incubated with Dy Light (Abcam) conjugated secondary antibodies for 2 h at room temperature. Slices were mounted on gelatin-coated slides with Fluoromont-G(Electron Microscopy Sciences, Hatfield, Pa., USA). For quantification, Ki67 positive cells were countedusing a fluorescence microscope (Olympus BX51, Tokyo, Japan). Cells were counted in all sections of one set (see tissue sectioning). Total cells counted in one set were multiplied by the total number of sets to obtain an estimation of the total number of Ki67+ cells in the complete hippocampus. For quantification of the % area covered by DCX, double labeling DCX/NeuN was carried. The total area of the granular cell layer was estimated as the area positive for NeuN staining and the percentage of this area covered by DCX staining was estimated. This image analysis was carried out using the ImageJ software (NIH, USA). Images shown were analyzed by confocal laser microscopy (Olympus FV 1000) and z-projections were generated with ImageJ software.
# [4] = different concentrations for 6 h, 14 DIV neurons
# [5] = 2-month-old mice, 2 mg/kg i.p. 3 times per week for 4 weeks
smiles,measurement,setting,value
"C=C1CC[C@@H]2C(C)(CO)[C@H](O)CC[C@@]2(C)C1C/C=C1/C(=O)OC[C@H]1O (stereo in doubt) [ANDRO, 3-(2-(Decahydro-6-hydroxy-5-(hydroxymethyl)-5,8a-dimethyl-2-methylenenaphthyl)ethylidene)dihydro-4-hydroxyfuran-2(3H)-one]",escape latency,[1],significantly lower escape latency values
same,β-catenin levels by immunofluorescence,"[2]; 5 μM for 6 h, 14 DIV neurons",increased β-catenin levels
same,time of peak accumulation of cytoplasmic and nuclear β-catenin,[2]; ANDRO 10 μM time course,9 h
same,time of maximum increase of the inhibited form of GSK-3β,"[2]; ANDRO 10 μM time course, cytoplasmic fraction",6 h
same,accumulation of β-catenin (western blot),[2]; [4],accumulation of β-catenin in a concentration-dependent manner
same,active form of GSK-3β (phosphor-Tyr-216),[2]; [4],decrease in the active form
same,inhibited form of GSK-3β (phospho-Ser-9),[2]; [4],increase in the inhibited form of the enzyme
same,density of immature neurons positive for DCX,[3]; [5],increase in the density of immature neurons
same,percentage of the granular cell layer covered by DCX staining,[3]; [5],significantly increased
same,total number of Ki67+ cells in the SGZ,[3]; [5],significantly increased the total number of Ki67^+ cells
same,total number of Ki67+ cells in the SGZ,"[3]; 2-month-old mice, 2 mg/kg i.p. 3 times per week for 4 weeks, listed as Ando",significant increase in the total number of Ki67^+ cell
same,percentage of the granular cell layer covered by DCX staining,"[3]; 2-month-old mice, 2 mg/kg i.p. 3 times per week for 4 weeks, listed as Andro",significant increase in the percentage of the granular cell layer area covered by DCX staining
same,morphology of DCX+ cells,[3]; compared to control mice,more complex morphology
